{"source": "patent US8557804B2", "about": "“Nicotinic receptor agonists for the treatment of inflammatory diseases” (priority 2002, dated 2013)", "key": {"blood eosinophils": {"system": "blood eosinophils", "assay": "Blood eosinophil transmigration through an artificial basement membrane (Matrigel coated chemotaxis chamber)", "type": "cell-based", "conditions": "purified blood eosinophils, Matrigel", "text": "Infiltration of eosinophils and other inflammatory cells into lung tissues is an important feature of asthma and the cause of airway inflammation and hyper-responsiveness. The passage of inflammatory cells from the circulation to the lung involves migration through the vascular endothelium, the basement membrane, and extra-cellular matrix components. Inflammatory cells cross the basement membrane by producing proteinases. In these preliminary in vitro experiments, the effects of various nicotinic agonists on the migration of purified blood eosinophils through an artificial basement membrane (Matrigel® coated chemotaxis chamber) were investigated. […] Results are expressed as a percentage of inhibition (agonists-treated cells) compared to the control condition without the agonists."}, "[1]": {"system": "allergic inflammation of the lungs in ovalbumin-sensitized mice", "assay": "Ovalbumin-sensitized mouse asthma model, BAL cell counts", "type": "in vivo, Balb/c mice", "procedure": "Groups of Balb/c mice were sensitized by intra-peritoneal injection of 20 μg OVA protein (chicken egg albumin; Sigma-Aldrich) emulsified in 2 mg aluminum hydroxide in PBS. After 4 weeks, challenge doses of 1.5%/50 μl OVA were administered intranasally. The challenge was performed daily for 3 consecutive days and then the mice assessed for allergic inflammation of the lungs 24 h after the last aerosol exposure. Groups of mice were treated with various concentrations of DMPP during the challenge period. Broncho-alveolar lavage (BAL) was performed and the fluid centrifuged at 400 g to separate cells from liquid.\nOvalbumin-sensitized mice (n=8) were challenged with the allergen and simultaneously treated intra-nasally with increasing concentrations of ASM-002 (0.5 to 4 mg/kg/d) for 3 days. The number of cells recovered by broncho-alveolar lavage was used as a measure of lung inflammation."}, "TNF": {"system": "TNF", "assay": "TNF levels in BAL fluid of SR-instilled mice", "type": "in vivo", "conditions": "DMPP-treated mice, SR instillation", "text": "(§1) The Intranasal instillation of Saccharopolyspora rectivirgula (SR) antigens, the causative agent for farmer's lung, to mice, induces a prominent inflammatory response in the lung. Neutrophils are the first inflammatory cells recruited at the site of inflammation."}, "[2]": {"system": "SR-induced inflammation in mice", "assay": "Short term SR-induced acute lung inflammation in mice, BAL cells", "type": "in vivo", "text": "as §1"}}}
{"compound": "C[N+]1(C)CCN(c2ccccc2)CC1", "note": "[DMPP, Dimethylphenylpiperazinium]", "values": [{"measurement": "inhibition of eosinophil transmigration", "setting": "blood eosinophils", "result": "dose-related inhibition"}, {"measurement": "eosinophils and lymphocytes in BAL", "setting": "[1]; first dose response, all groups (n=8; p<0.05)", "result": "significantly reduced"}, {"measurement": "total cell counts in BAL", "setting": "[1]; intra-peritoneal DMPP, 0.5 and 2.0 mg/kg doses, OVA challenged mice", "result": "significantly reduced"}, {"measurement": "eosinophil and lymphocyte counts in BAL", "setting": "[1]; second dose response, 0.1 and 0.5 mg/kg doses", "result": "significantly reduced"}, {"measurement": "most effective dose for the anti-inflammatory effect", "setting": "[1]; second dose response, IP", "result": 0.5, "unit": "mg/kg"}, {"measurement": "BALF TNF levels", "setting": "TNF", "result": "decreased significantly"}, {"measurement": "effect on SR-induced inflammation (BAL cells)", "setting": "[2]; intra-nasal every 6 h, 24 h after SR, DMPP 0.5 mg/kg, nicotine 0.5 mg/kg, epibatidine 2 μg/kg", "result": "marked inhibitory effect"}, {"measurement": "effect on SR-induced lung inflammation compared to the non-treated group", "setting": "[2]; number of mice increased to 15", "result": "significant inhibition"}]}
